Molecules are shown by their SMILES.

Data set [1] concerns Uromyces appendiculatus. The data set can be described thus: In vivo preventive test on Uromyces appendiculatus (bean rust). The settings on record: bean plants, preventive spray, 500 ppm, grading 11 days after contamination. As for the experimental part:
Example: In Vivo Preventive Test on Uromyces appendiculatus (Bean Rust) […] Bean plants (“Saxa” variety), sown in starter cups on a 50/50 peat soil-pozzolana substrate and grown at 24° C., are treated at the 2-leaf stage (9 cm height) by spraying with the active ingredient prepared as described above. Plants, used as controls, are treated with the mixture of acetone/tween/DMSO/water not containing the active material. After 24 hours, the plants are contaminated by spraying the leaves with an aqueous suspension of Uromyces appendiculatus spores (150 000 spores per ml). […] Grading (% of efficacy) is carried out 11 days after the contamination, in comparison with the control plants. Under these conditions, good (at least 70%) or total protection is observed at a dose of 500 ppm with the following compounds: […]

Data set [2] deals with Pyrenophora teres. Nature of the data set: In vivo preventive test on Pyrenophora teres (net blotch on barley). The settings on record: barley plants, preventive spray, 500 ppm, grading 14 days after contamination. As for the experimental part:
Example: In Vivo Preventive Test on Pyrenophora teres (Net Blotch on Barley) […] Barley plants (“Plaisant” variety), sown in starter cups on a 50/50 peat soil-pozzolana substrate and grown at 22° C., are treated at the 1-leaf stage (10 cm height) by spraying with the active ingredient prepared as described above. Plants, used as controls, are treated with the mixture of acetone/tween/DMSO/water not containing the active material. After 24 hours, the plants are contaminated by spraying the leaves with an aqueous suspension of Pyrenophora teres spores (12 000 spores per ml). The spores are collected from a 12-day-old culture. […] Grading (% of efficacy) is carried out 14 days after the contamination, in comparison with the control plants. Under these conditions, good (at least 70%) or total protection is observed at a dose of 500 ppm with the following compounds: […]

The test system of data set [3] is Pyricularia oryzae. Type of data set: in vivo. The settings on record: rice plants, preventive spray, 500 ppm, grading 6 days after contamination.
The subject of data set [4] is Phakopsora pachyrhizi. Nature of the data set: In vivo Phakopsora test (soybeans)/preventive. The settings on record: preventive, 100 ppm of active ingredient, evaluated 7 days after inoculation. As for the experimental part:
Example: In Vivo Phakopsora Test (Soybeans)/Preventive Solvent: 24.5 parts by weight of acetone • 24.5 parts by weight of dimethylacetamide Emulsifier: • 1 part by weight of alkylaryl polyglycol ether To produce a suitable preparation of active compound, 1 part by weight of active compound is mixed with the stated amounts of solvent and emulsifier, and the concentrate is diluted with water to the desired concentration. To test for preventive activity, young plants are sprayed with the preparation of active compound at the stated rate of application. After the spray coating has dried on, the plants are inoculated with an aqueous to spore suspension of the causal agent of soybean rust (Phakopsora pachyrhizi) and stay for 24 h without light in an incubation cabinet at approximately 24° C. and a relative atmospheric humidity of 95%.

For data set [5], the system named is Sphaerotheca fuliginea. Nature of the data set: In vivo preventive test on Sphaerotheca fuliginea (powdery mildew on cucurbits). The settings on record: gherkin plants, preventive spray, 500 ppm, grading 12 days after contamination. As to the method:
Example: In Vivo Preventive Test on Sphaerotheca fuliginea (Powdery Mildew on Cucurbits) […] Gherkin plants (“Vert petit de Paris” variety), sown in starter cups on a 50/50 peat soil-pozzolana substrate and grown at 24° C., are treated at the Z11 cotyledon stage by spraying with the active ingredient prepared as described above. Plants, used as controls, are treated with the mixture of acetone/tween/DMSO/water not containing the active material. After 24 hours, the plants are contaminated by spraying the cotyledons with an aqueous suspension of Sphaerotheca fuliginea spores (100 000 spores per ml). The spores are collected from infected plants. […] Grading (% of efficacy) is carried out 12 days after the contamination, in comparison with the control plants. Under these conditions, good (at least 70%) or total protection is observed at a dose of 500 ppm with the following compounds: […]

Data set [6] has as its system Puccinia recondita. The data set can be described thus: In vivo preventive test on Puccinia recondita (brown rust on wheat). The settings on record: wheat plants, preventive spray, 500 ppm, grading 12 days after contamination. As for the experimental part:
Example: In Vivo Preventive Test on Puccinia recondita (Brown Rust on Wheat) […] Wheat plants (“Scipion” variety), sown in starter cups on a 50/50 peat soil-pozzolana substrate and grown at 22° C., are treated at the 1-leaf stage (10 cm height) by spraying with the active ingredient prepared as described above. Plants, used as controls, are treated with the mixture of acetone/tween/DMSO/water not containing the active material. After 24 hours, the plants are contaminated by spraying the leaves with an aqueous suspension of Puccinia […] spores (100 000 spores per ml). […] Grading (% of efficacy) is carried out 12 days after the contamination, in comparison with the control plants. Under these conditions, good (at least 70%) or total protection is observed at a dose of 500 ppm with the following compounds: […]

A short description of data set [7]: logP by HPLC on reversed phase columns (EEC directive 79/831 Annex V.A8). Particulars: method [a]: LC-MS at pH 2.7, 0.1% formic acid in water / acetonitrile gradient 10% to 95%.
Data set [8] has as its system Fusarium nivale (var. majus). Nature of the data set: In vivo Fusarium nivale (var. majus) test (wheat)/preventive. Particulars: preventive, 500 ppm of active ingredient, evaluated 5 days after inoculation. As for the experimental part:
(§1) Example: In Vivo Fusarium nivale (Var. Majus)-Test (Wheat)/Preventive Solvent: 49 parts by weight of N,N-dimethylacetamide Emulsifier: 1 part by weight of alkylaryl polyglycol ether To produce a suitable preparation of active compound, 1 part by weight of active compound or active compound combination is mixed with the stated amounts of solvent and emulsifier, and the concentrate is diluted with water to the desired concentration. To test for preventive activity, young plants are sprayed with the preparation of active compound or active compound combination at the stated rate of application. After the spray coating has been dried, the plants are slightly injured by using a sandblast and afterwards to they are sprayed with a conidia suspension of Fusarium nivale (var. majus).

The test system of data set [9] is Septoria tritici. The data set can be described thus: In vivo preventive test on Septoria tritici (leaf spot on wheat). Particulars: wheat plants, preventive spray, 500 ppm, grading 24 days after contamination. As for the experimental part:
Example: In Vivo Preventive Test on Septoria tritici (Leaf Spot on Wheat) […] Wheat plants (“Scipion” variety), sown in starter cups on a 50/50 peat soil-pozzolana substrate and grown at 22° C., are treated at the 1-leaf stage (10 cm height) by spraying with the active ingredient prepared as described above. Plants, used as controls, are treated with the mixture of acetone/tween/DMSO/water not containing the active material. After 24 hours, the plants are contaminated by spraying the leaves with an aqueous suspension of cryopreserved Septoria tritici spores (500 000 spores per ml). […] Grading (% of efficacy) is carried out 24 days after the contamination, in comparison with the control plants. Under these conditions, good (at least 70%) or total protection is observed at a dose of 500 ppm with the following compounds: […]

The test system of data set [10] is Phytophthora infestans. Type of data set: in vivo. Particulars: tomato plants, preventive spray, 500 ppm, grading 5 days after contamination.
Data set [11] deals with Botrytis cinerea. The data set can be described thus: In vivo preventive test on Botrytis cinerea (grey mould). Particulars: gherkin plants, preventive spray, 500 ppm, grading 4 to 5 days after contamination. As for the experimental part: Example: In Vivo Preventive Test on Botrytis cinerea (Grey Mould) […] Gherkin plants (“Vert petit de Paris” variety), sown in starter cups on a 50/50 peat soil-pozzolana substrate and grown at 24° C., are treated at the Z11 cotyledon stage by spraying with the active ingredient prepared as described above. Plants, used as controls, are treated with the mixture of acetone/tween/DMSO/water not containing the active material. After 24 hours, the plants are contaminated by spraying the cotyledons with an aqueous suspension of cryopreserved Botrytis cinerea spores (50 000 spores per ml). The spores are suspended in a nutrient solution composed of 10 g/L of PDB, 50 g/L of D-Fructose, 2 g/L of NH4NO3 and 1 g/L of KH2PO4. […] Grading (% of efficacy) is carried out 4 to 5 days after the contamination, in comparison with the control plants. Under these conditions, good (at least 70%) or total protection is observed at a dose of 500 ppm with the following compounds: […]

Data set [12] relates to Blumeria graminis fsp. hordei. The data set can be described thus: In vivo Blumeria test (barley)/preventive. The settings on record: preventive, 500 ppm of active ingredient, evaluated 7 days after inoculation. As to the method: as §1, with “Blumeria Test (Barley)/Preventive” for “Fusarium nivale (Var. Majus)-Test (Wheat)/Preventive”, “dusted” for “slightly injured by using a sandblast and afterwards to they are sprayed”, “spores” for “a conidia suspension”, “Blumeria graminis fsp. hordei.” for “Fusarium nivale (var. majus).”

A short description of data set [13]: physchem. The settings on record: pH 2.7.
The test system of data set [14] is Alternaria brassicae. The data set can be described thus: In vivo preventive test on Alternaria brassicae (leaf spot on radish). The settings on record: radish plants, preventive spray, 500 ppm, grading 6 days after contamination. As to the method:
Example: In Vivo Preventive Test on Alternaria brassicae (Leaf Spot on Radish) […] Radish plants (“Pernod Clair” variety), sown in starter cups on a 50/50 peat soil-pozzolana substrate and grown at 17° C., are treated at the cotyledon stage by spraying with the active ingredient prepared as described above. Plants, used as controls, are treated with the mixture of acetone/tween/DMSO/water not containing the active material. After 24 hours, the plants are contaminated by spraying the cotyledons with an aqueous suspension of Alternaria brassicae spores (50 000 spores per ml). The spores are collected from a 15-day-old culture. […] Grading (% of efficacy) is carried out 6 days after the contamination, in comparison with the control plants. Under these conditions, good (at least 70%) or total protection is observed at a dose of 500 ppm with the following compounds: […]

For `CCON=C(c1ccc(-c2ccccc2NC(=O)c2c(C(F)F)nn(C)c2F)cc1)C(F)(F)F` [Example 29], the Eff. % in data set [1] was determined as 100%; in [2], 97%; in [3] it was 83%; in [4] it was 91%; in [5], 100%; in data set [6], 97%. Further, the Eff. % in [8] was found to be 86%. Further, the logP in data set [7] is 4.46[a].

For `C#CCON=Cc1ccc(-c2ccccc2NC(=O)c2c(C(F)F)nn(C)c2F)cc1` [Example 4], the Eff. % in data set [1] was determined as 100%; in data set [2], 100%; in [3], 80%; in data set [5], 100%; in data set [9] it was 95%; in data set [6] it was 100%. The results for the Eff. % in data set [8] and in [10] were 80% and 100%, respectively. Further, the logP in data set [7] was 3.55[a].

As to `CC#CCON=C(C)c1ccc(-c2ccccc2NC(=O)c2c(C(F)F)nn(C)c2F)cc1` [Example 13], the Eff. % in data set [1] is on record as 100%; in data set [2] it was 88%; in data set [4] it was 100%; in data set [5], 100%; in [9] it was 80%; in [6] it was 100%. For the same compound, in data set [11], the Eff. % worked out at 80%. The logP in [7] is 4.11[a].

On to `C#CCON=C(C)c1ccc(-c2ccccc2NC(=O)c2c(C(F)F)nn(C)c2Cl)cc1` [Example 3], for which the Eff. % turned out to be 100% in data set [1], 70% in [5], 98% in data set [6] and 99% in data set [10]. Also, the logP in data set [7] was 4.06[a].

Regarding `CC#CCON=C(C)c1ccc(-c2ccccc2NC(=O)c2c(C(F)F)nn(C)c2Cl)cc1` [Example 27], the Eff. % in data set [1] amounted to 100%; in data set [4] it was 100%; in data set [5], 100%; in data set [9], 70%; in data set [6], 98%. In data set [7], the logP was 4.41[a].

`CON=Cc1ccc(-c2ccccc2NC(=O)c2c(C(F)F)nn(C)c2Cl)cc1` [Example 8]: the Eff. % in [1] amounted to 100%; in data set [2] it was 97%; in [3] it was 80%; in data set [5], 100%; in data set [9] it was 100%; in data set [6] it was 100%. The Eff. % was 73% in [11] and 100% in [12]. For the same compound, the logP in data set [7] is 4.18[a].

What is called chromatographic logP is lipophilicity estimated from chromatographic retention. In the case of `CON=Cc1ccc(-c2ccccc2NC(=O)c2c(C(F)F)nn(C)c2F)cc1` [Example 9, 5-fluoro-3-(difluoromethyl)-N-{4′-[(methoxyimino)methyl]biphenyl-2-yl}-1-methyl-1H-pyrazole-4-carboxamide], the Eff. % in [1] is given as 100%; in data set [2] it was 79%; in data set [3], 80%; in data set [5] it was 100%; in data set [9], 80%; in data set [6] it was 100%. This compound also displayed a chromatographic logP in data set [13] of 3.46.

For the compound `C#CCON=Cc1ccc(-c2ccccc2NC(=O)c2c(C(F)F)nn(C)c2Cl)cc1` [Example 5], the Eff. % in data set [1] stood at 100%; in data set [2], 86%; in [14] it was 88%; in [3], 90%; in data set [5], 100%; in [6], 100%. This compound also registered an Eff. % in data set [11] of 100%. Further, the logP in data set [7] was 3.79[a].

The record behind these values is patent US9765034B2, “5-halogenopyrazole biphenylcarboxamides” (BAYER CROPSCIENCE AG, priority 2012, dated 2017).
